Reference: a melting point compilation (Tetko et al.; mined from patent text by program, amines drawn as free bases though some values may be those of a salt)

In the case of `CC1=C2c3c(cnc4cc(Cl)ccc34)NC2C(C)CN1` (stereo unspecified), the melting point is reported as 188 to 190 °C.
`COC(=O)C[C@@H]1C[C@@H](COc2ccc(-c3ccc(C#N)cc3)cc2)NC1=O` gave a melting point of 138 to 140 °C.
In the case of `CCn1cc(C(=O)O)c(=O)c2cnc(N3CCN(CC(C)O)CC3)nc21` (stereo unspecified), the melting point is reported as 214 to 216 °C.
`CC(C)(C)c1ccc2nc3c(c(O)c2c1)CCCC3` showed a melting point of 320 to 322 °C.
`CCOC(=O)CC1CC2C(CCC3(C)C(=O)CCC23)c2ccc(O)cc21` (stereo unspecified) gave a melting point of 138 °C.
For `O=C1NC(OC(=O)c2ccccc2)C2=C1c1ccc(Cl)cc1C(c1ccccc1Cl)=NC2` (stereo unspecified), the melting point was 140 to 142 °C.
`COc1ccc(C(=O)N2CCc3nnc(NN)cc3C2)cc1` showed a melting point of 169 to 172 °C.
In the case of `Cc1c(NC(=O)c2ccc(OCC3CCCO3)cc2)ccc2cc(CNC3CCC(O)CC3)cnc12` (stereo unspecified), the melting point is reported as 155 °C.
Work on `C[C@@H](Cc1c2n(c3ccc(O)cc13)CCC2)NC(=O)OC(C)(C)C` yielded a melting point of 135 to 136 °C.
Compound `CC(=O)OCCn1ncc(-c2ncc([N+](=O)[O-])n2C)c1C` has a melting point of 79 °C.
For `COc1ccc(CN(C)CCc2ccc(NC(=O)c3cccc(C(=O)c4ccccc4)c3)cc2)cc1OC`, the melting point was 130 °C.
In the case of `O=C(Cc1ccc(O)cc1)c1ccc(O)cc1O`, the melting point is reported as 186 °C.
For `Cc1noc(C)c1-c1ccc2c(c1)ncc1ncn(-c3ccccc3C(C)(C)C)c12`, the melting point was 216 °C.
In the case of `Cc1c(NC(=O)c2ccc(OCC3CC3)cc2)ccc2cc(CN3CCC(C)(O)CC3)[nH]c12`, the melting point is reported as 195 °C.
For `Cc1cc(F)cc2c1CC/C2=C\C(N)=O`, the melting point was 178 to 180 °C.
With `COc1c(F)c(F)cc2c(=O)c(C(=O)O)cn(C3COC3)c12` the melting point was 178 to 179 °C.
`CC(=S)Nc1ccc(C(=O)O)cc1` gave a melting point of 220 °C.
`O=C1Cc2c(cc3ccccc3c2Cl)C(c2ccccc2Cl)N1` (stereo unspecified) showed a melting point of 252 to 254 °C.
`Clc1ccc(NC2CCN(Cc3ccccc3)CC2)nn1` showed a melting point of 208 to 209 °C.
For `CNC(=O)c1cccc(C=O)c1`, the melting point was 101 to 102 °C.
For `Cc1nn(-c2cc(Nc3ccc(N)cc3)c(Cl)cc2Cl)c(=O)n1C(F)F`, the melting point was 196 to 197 °C.
With `COC(=O)c1sc2ccccc2c1S(N)(=O)=O` the melting point was 150 to 154 °C.
`CCN1CCC(C2CCN(C(=O)OCc3ccccc3)CC2)CC1` showed a melting point of 93 to 96 °C.
In the case of `Cc1nc(NC(=O)c2cnn3c(C(F)(F)F)cc(-c4ccc(C(F)(F)F)cc4)nc23)sc1S(N)(=O)=O`, the melting point is reported as 303 °C.
With `Nc1nc(=O)n(C(=O)NC2CCCC2)cc1F` the melting point was 294 to 297 °C.
Work on `CCN(CC)C(=O)c1cc(-c2ccccc2)c2sccc2c1` yielded a melting point of 78 °C.
`CN1CCCC1=C(C#N)c1ccc([N+](=O)[O-])cc1` showed a melting point of 67 °C.
`COc1ccc(/C=C(\C#N)c2ccc([N+](=O)[O-])cc2)cc1OC1CCCC1` showed a melting point of 186 to 187 °C.
`C=CCNc1cc(Cl)nnc1NN` gave a melting point of 184 to 186 °C.
In the case of `CC(C)(C)n1nc2nc3n(c(=O)c2c1N)CCS3`, the melting point is reported as 154 to 158 °C.
With `C=C(C(=O)OCC)c1cc(-c2cc3c(cc2C)C(C)(C)CCC3(C)C)ccc1OCOC` the melting point was 100 to 101 °C.
`FC(F)(F)COc1ccc(-c2cc(C(F)(F)F)n3cnc(-c4ccncc4)c3n2)cc1C(F)(F)F` showed a melting point of 269 °C.
Compound `C#CCNC(=O)N1c2ccccc2-c2noc3c2C1CCC3` (stereo unspecified) has a melting point of 220 °C.
Work on `COc1cc2nc(S(=O)Cc3ncc(C)c(N(C)C)c3Cl)[nH]c2cc1OC` (stereo unspecified) yielded a melting point of 174 to 175 °C.
For `Nc1cc2c(=O)cc(C(=O)O)[nH]c2ccc1=O`, the melting point was > 250 °C.
Compound `O=S1CCn2c1nc(-c1ccc(F)cc1)c2-c1ccncc1` (stereo unspecified) has a melting point of 229 to 231 °C.
`O=C1CCC(N2Cc3c(OCc4ccc(CN5CCOc6ccccc65)cc4)cccc3C2=O)C(=O)N1` (stereo unspecified) gave a melting point of 145 to 147 °C.
Work on `Cc1cc(Cl)cc(NC(=O)Cc2ccc(OC3(C(=O)O)CCC(C)C3)cc2)c1` (stereo unspecified) yielded a melting point of 164 to 166 °C.
For `CCc1cccc2nc3c(=O)[nH][nH]c(=O)c3c(O)c12`, the melting point was > 400 °C.
`C=CC(CCc1ccccc1)NC(=O)OC(C)(C)C` (stereo unspecified) gave a melting point of 53 °C.
With `Cn1cccc1-c1cc2nccnc2[nH]1` the melting point was 208 to 209 °C.
Work on `CCNc1cn(-c2cccnc2)nc1Cl` yielded a melting point of 89 to 90 °C.
In the case of `COC(=O)c1cc2cccc(OC)c2cc1O`, the melting point is reported as 182 °C.
`CCCc1nc2c(c(C)c(C)n3nnnc23)n1CC(C)(C)NC(=O)NC1CCCCC1` gave a melting point of 196 to 198 °C.
`CC1Oc2c(F)cc(CN3CCN(c4ccc(C(=O)NC5CC5)cc4)CC3)cc2NC1=O` (stereo unspecified) showed a melting point of 108 to 110 °C.
Work on `NCC(=O)c1ncn(Cc2ccccc2)c1N` yielded a melting point of 156 to 162 °C.
Work on `CC(C)(C)C(=O)c1ccc(C(=O)NC(=O)c2ccc(C(=O)C(C)(C)C)cc2)cc1` yielded a melting point of 131 to 132 °C.
`NCCCCCCO[PH](=O)CC(=O)O` (stereo unspecified) gave a melting point of 236 to 238 °C.
Work on `O=C(O)c1ccc(-c2ccc(F)cc2)cc1` yielded a melting point of 138 to 141 °C.
With `Nc1ncc(-c2noc(-c3cnn4c(C(F)(F)F)cc(-c5ccc(C(F)(F)F)c(Cl)c5)nc34)n2)cn1` the melting point was 279 °C.
With `COc1cc2c(c3c1OC(C)(C)C3)C(c1ccc(-c3ccc(NC(C)=O)cc3)cc1)=NC(C)(C)C2` the melting point was 128 to 132 °C.
Compound `Clc1ccc(-c2cc(C3CCN(Cc4ccccc4Cl)CC3)n[nH]2)cc1` has a melting point of 137 to 139 °C.
Work on `CNc1ccc2sc3ccc(Br)cc3c(=O)c2c1` yielded a melting point of 198 to 200 °C.
In the case of `CC1(C)[C@@H](C=C(c2ccccc2)c2ccccc2)[C@@H]1C(=O)O` (relative stereo), the melting point is reported as 115 °C.
For `CCCc1c(OCCCCCC(=O)NCCCCCCc2cccnc2)ccc(C(C)=O)c1O`, the melting point was 56 to 58 °C.
In the case of `CCn1c(-c2ccccc2)c(C2=CCC(C(=O)O)CC2)c2ccccc21` (stereo unspecified), the melting point is reported as 147 to 150 °C.
`O=CCCc1nc(-c2ccc(Cl)cc2)co1` showed a melting point of 41 to 42 °C.
Work on `CCCN1CCCC2(Cc3ccccc3NC2=O)C1=O` (stereo unspecified) yielded a melting point of 151 to 154 °C.
Compound `O=C(O)C(O)N1C(=O)CCN1c1cccc(C(F)(F)F)c1` (stereo unspecified) has a melting point of 142 to 144 °C.
With `Cc1cc(/C=C/C(c2cc(Cl)cc(Cl)c2)C(F)(F)F)ccc1C(=O)O` (stereo unspecified) the melting point was 142 to 143 °C.
With `COc1ccc(S(N)(=O)=O)cc1C(=O)NC1CCN(C2CCCCC2)C1` (stereo unspecified) the melting point was 184 to 187 °C.
`CN1CC(CCN(C)c2ccccc2)Oc2ncccc2C1=S` (stereo unspecified) gave a melting point of 164 to 165 °C.
In the case of `O=c1cc(NCCN2CCN(c3cccc(Cl)c3)CC2)cn[nH]1`, the melting point is reported as 187 to 189 °C.
Work on `Cc1ccc(S(=O)(=O)CCC2OCCO2)cc1` yielded a melting point of 78 to 80 °C.
Compound `CCOC(=O)CCN(CCCCCCN(CCC(=O)OCC)C1CC(C)(C)NC(C)(C)C1)C1CC(C)(C)NC(C)(C)C1` has a melting point of 58 to 60 °C.
`COC(=O)c1ccc(C(CCN(C)C)c2ncc[nH]2)cc1` (stereo unspecified) showed a melting point of 102 to 104 °C.
In the case of `c1cc(C2=NOC(C3CC3)C2)ccn1` (stereo unspecified), the melting point is reported as 102 to 108 °C.
In the case of `C=CCNC1=NS(=O)(=O)c2ccc(Cl)cc2N1`, the melting point is reported as 284 to 286 °C.
`Nc1cccc(-c2ccc(OCCN3CC4C(N)C4C3)c3ccccc23)n1` (stereo unspecified) showed a melting point of 140 to 155 °C.
Work on `O=C(C[C@H](NC(=O)C(F)(F)F)C(=O)O)c1ccc2c(c1)Cc1ccccc1-2` yielded a melting point of 111 to 115 °C.
Work on `O=C(O)c1ncn(Cc2ccc(Cl)c(Cl)c2)c1C(=O)O` yielded a melting point of 258 °C.
In the case of `O=C(Nc1ccc(Cl)c(C(F)(F)F)c1)Nc1ccc2ncsc2c1`, the melting point is reported as 225 to 228 °C.
With `CC(C)(C)c1cc(OCCCCCCc2nnn[nH]2)cc(C(C)(C)C)c1` the melting point was 113 to 115 °C.
`COc1ccc(S(=O)(=O)Nc2cccnc2Nc2ccncc2)cc1` gave a melting point of 172 to 173 °C.
Compound `COc1ccc(C=C2CCc3c2nc2ccc(C)cn2c3=O)cc1` has a melting point of 210 to 211 °C.
`ClC1=NN(c2ccccc2)CC1` gave a melting point of 92 to 93 °C.
Compound `O=C(Nc1nc(-c2ccccc2)cs1)Nc1nc(-c2ccccc2)cs1` has a melting point of 285 to 287 °C.
Compound `Cc1cc(Br)cc(Br)c1NC(=N)Nc1c(C)cc([N+](=O)[O-])cc1Br` has a melting point of 193 to 195 °C.
`COC(=O)c1c(SC(C)C)c2cc(OC)ccc2n1C` gave a melting point of 93 to 95 °C.
`CC(=O)SCCS(=O)(=O)N1CCC[C@H]1C(=O)O` gave a melting point of 63 to 67 °C.
With `CC(=O)C(=[N+]=[N-])C(=O)CCc1ccc(S(=O)(=O)Cl)cc1` the melting point was 58 to 59.5 °C.
`Cc1noc(NS(=O)(=O)c2cccc(Cl)c2C)c1Br` gave a melting point of 185 to 187 °C.
Compound `O=c1cc(N2CCOCC2)oc2ccccc12` has a melting point of 143 °C.
In the case of `FC(F)(F)c1nnc2ccc(-c3ccccc3)nn12`, the melting point is reported as 183 to 184 °C.
Compound `CN1CCN(Cc2c(O)ccc3c2OCO3)CC1` has a melting point of 85 to 87 °C.
In the case of `CCCCC1Cc2c(c3cccnc3n(-c3ccc(C)cc3)c2=O)O1` (stereo unspecified), the melting point is reported as 282 to 284 °C.
Compound `N#CCc1nc(-c2ccc(Cl)cc2)sc1-c1ccccc1` has a melting point of 118 to 120 °C.
For `C1=CNC2=NCCN2C1`, the melting point was 107 to 113 °C.
`CC(CO)(CO)NCc1cc2c3ccccc3ccc2c2ccccc12` showed a melting point of 200 to 202 °C.
`CN(C)CCNS(=O)(=O)c1cccc([N+](=O)[O-])c1C(=O)O` showed a melting point of 193 °C.
For `COc1ccc(CNC(=S)SC)cc1`, the melting point was 67 to 70 °C.
Compound `COc1ccccc1N1CCN(S(=O)(=O)c2ccc(N)cc2)CC1` has a melting point of 230 to 232 °C.
For `Cc1cc(F)cc(Oc2ccc([C@@H]3CCCN4CCS(=O)(=O)N=C34)cc2)c1`, the melting point was 158 to 159 °C.
For `Cc1cc(-n2nn[nH]c2=O)c(Cl)cc1Cl`, the melting point was 135 to 137 °C.
Compound `ON=C1CCc2c1sc1c2CCCC1` has a melting point of 174 to 176 °C.
`COc1ccc(CCc2cc3cc(Br)ccc3o2)cc1` gave a melting point of 109 to 111 °C.
`N[C@@H](Cc1cc(F)cc(F)c1)[C@H](O)CO` gave a melting point of 93 °C.
Compound `CC1(C)CCSc2cc(-c3cc(-c4ccc(C(=O)O)cc4)ccc3-c3ccccc3)ccc21` has a melting point of 180 °C.
In the case of `CCC(CO)Nc1ccc(-c2cccc(C(F)(F)F)c2)nn1` (stereo unspecified), the melting point is reported as 84 to 87 °C.
`O=C(Nc1cccnc1)N1CCN(c2cc(-c3ccccc3F)ncn2)CC1` gave a melting point of 178 to 179 °C.
`Cc1cc(C)c(NC(=O)N(Cc2ccc3c(c2)-c2ccccc2-3)C2CCCCCC2)c(C)c1` gave a melting point of 123 to 124 °C.
`CCOC(=O)C(Oc1ccc(-c2ccc(Cl)cc2)cc1)(C(F)(F)F)C(F)(F)F` showed a melting point of 44 to 45 °C.
For `NC(=O)c1cc(C(=O)N(CCO)CCO)cc([N+](=O)[O-])c1`, the melting point was 151 °C.
Compound `O=C(c1ccc(CBr)cc1)c1c(Cl)cccc1Cl` has a melting point of 126 to 130 °C.
In the case of `CC(=O)OC1CSC(Oc2ccc(-c3cncnc3)nc2)C(OC(C)=O)C1OC(C)=O` (stereo unspecified), the melting point is reported as 215 °C.
Compound `CC(=O)NCCc1ccc(C=O)cc1` has a melting point of 81 to 83 °C.
